Measured values taken from patent US6737383B1, “Herbicidal oxadiazolidines” (priority 1999, dated 2004).

Experiments:
pigweed = assay: Test B pre/postemergence pigweed; format: in vivo, Amaranthus retroflexus
In short: (§1)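 Herbicidal effect was estimated by eye on a ten-point control scale after plants spent twelve to sixteen days in a greenhouse following soil or foliar treatment. Foliar sprays targeted plants at one to four leaves; all doses were formulated in a non-phytotoxic solvent with surfactant.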

rape = assay: Test B pre/postemergence rape; format: in vivo, Brassica napus
In short: as §1

winter wheat [1] = assay: Test E winter wheat; format: in vivo, Triticum aestivum; details: Postemergence
In short: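 Postemergence: 60:40 sandy loam/greenhouse potting mix, 1- to 4-leaf stage. Formulation: solvent plus surfactant. Assessment: visual comparison with untreated controls at ~21–28 days.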

giant foxtail = assay: Test B pre/postemergence giant foxtail; format: in vivo, Setaria faberii
In short: as §1

winter barley = assay: Test E winter barley; format: in vivo, Hordeum vulgare; details: Preemergence
winter wheat [2] = assay: Test E winter wheat; format: in vivo, Triticum aestivum; details: Preemergence
Italian ryegrass = assay: Test E Italian ryegrass; format: in vivo, Lolium multiflorum; details: Preemergence
wild oat = assay: Test E wild oat; format: in vivo, Avena fatua; details: Preemergence
morningglory = assay: Test B pre/postemergence morningglory; format: in vivo, Ipomoea hederacea
In short: as §1

blackgrass = assay: Test E blackgrass; format: in vivo, Alopecurus myosuroides; details: Preemergence
green foxtail = assay: Test E green foxtail; format: in vivo, Setaria viridis; details: Preemergence
[3] = Postemergence, Rate 125 g/ha, scale 0 to 10, 0 is no effect, 10 is complete control
[4] = Postemergence, Rate 250 g/ha, scale 0 to 10, 0 is no effect, 10 is complete control
[5] = Preemergence, Rate 62 g/ha, scale 0 to 10 (0 no effect, 10 complete control)
[6] = Preemergence, Rate 250 g/ha, scale of 0 to 10 where 0 is no effect and 10 is complete control
[7] = Preemergence, Rate 500 g/ha, scale of 0 to 10 where 0 is no effect and 10 is complete control
[8] = Rate 62 g/ha, Postemergence, scale of 0 to 10 where 0 is no effect and 10 is complete control
[9] = Rate 500 g/ha, Postemergence, scale 0 to 10, 0 no effect, 10 complete control
[10] = Rate 125 g/ha, 0 to 100 scale, 0 is no effect, 100 is complete control
[11] = Rate 250 g/ha, 0 to 100 scale, 0 is no effect, 100 is complete control
[12] = Rate 500 g/ha, 0 to 100 scale, 0 is no effect, 100 is complete control
[13] = Rate 125 g/ha, 0 to 100 scale (0 no effect, 100 complete control)
[14] = Rate 250 g/ha, 0 to 100 scale, 0 no effect, 100 complete control
[15] = Rate 500 g/ha, 0 to 100 scale (0 no effect, 100 complete control)
[16] = Preemergence, Rate 62 g/ha, scale of 0 to 10 where 0 is no effect and 10 is complete control
[17] = Rate 62 g/ha, Postemergence, scale 0 to 10 (0 no effect, 10 complete control)
[18] = Rate 125 g/ha, Postemergence, scale of 0 to 10 where 0 is no effect and 10 is complete control
[19] = Rate 250 g/ha, Postemergence, scale of 0 to 10 where 0 is no effect and 10 is complete control
[20] = Rate 1000 g/ha, 0 to 100 scale, 0 no effect, 100 complete control

CC1CC1n1c(=O)on(C(=O)N(c2ccccc2)C(C)C)c1=O (centres unmarked) [Compound 370]
Plant response rating, Redroot pigweed (pigweed; [3]): 0
Plant response rating, Redroot pigweed (pigweed; [4]): 0
Plant response rating, Redroot pigweed (pigweed; [5]): 5
Redroot pigweed plant response rating (0 to 10 scale) (pigweed; Preemergence, Rate 125 g/ha): 7
Redroot pigweed plant response rating (pigweed; [6]): 10
Redroot pigweed plant response rating (pigweed; [7]): 10
Redroot pigweed plant response rating (pigweed; [8]): 0
Plant response rating, Redroot pigweed (pigweed; [9]): 3
Plant response rating, Rape (rape; [3]): 0
Plant response rating, Rape (rape; [4]): 2
Plant response rating, Rape (rape; [5]): 0
Rape plant response rating (0 to 10 scale) (rape; Preemergence, Rate 125 g/ha): 0
Rape plant response rating (rape; [6]): 6
Rape plant response rating (rape; [7]): 10
Rape plant response rating (rape; [8]): 0
Plant response rating, Rape (rape; [9]): 3
Plant response rating, Wheat (winter) (winter wheat [1]; [10]): 70
Plant response rating, Wheat (winter) (winter wheat [1]; [11]): 80
Plant response rating, Wheat (winter) (winter wheat [1]; [12]): 85
Plant response rating, Giant foxtail (giant foxtail; [3]): 8
Plant response rating, Giant foxtail (giant foxtail; [4]): 8
Plant response rating, Giant foxtail (giant foxtail; [5]): 9
Giant foxtail plant response rating (0 to 10 scale) (giant foxtail; Preemergence, Rate 125 g/ha): 10
Giant foxtail plant response rating (giant foxtail; [6]): 10
Giant foxtail plant response rating (giant foxtail; [7]): 10
Giant foxtail plant response rating (giant foxtail; [8]): 6
Plant response rating, Giant foxtail (giant foxtail; [9]): 9
Plant response rating, Barley (winter) (winter barley; [13]): 60
Plant response rating, Barley (winter) (winter barley; [14]): 60
Plant response rating, Barley (winter) (winter barley; [15]): 70
Plant response rating, Wheat (winter) (winter wheat [2]; [13]): 50
Plant response rating, Wheat (winter) (winter wheat [2]; Rate 250 g/ha, 0 to 100 scale): 40
Plant response rating, Wheat (winter) (winter wheat [2]; [15]): 60
Plant response rating, I. Ryegrass (Italian ryegrass; [13]): 55
Plant response rating, I. Ryegrass (Italian ryegrass; Rate 250 g/ha, 0 to 100 scale): 85
Plant response rating, I. Ryegrass (Italian ryegrass; [15]): 90
Plant response rating, Wild oat (wild oat; [13]): 60
Plant response rating, Wild oat (wild oat; Rate 250 g/ha, 0 to 100 scale): 75
Plant response rating, Wild oat (wild oat; [15]): 90
Plant response rating, Morningglory (morningglory; [3]): 10
Plant response rating, Morningglory (morningglory; [4]): 10
Plant response rating, Morningglory (morningglory; [5]): 0
Morningglory plant response rating (0 to 10 scale) (morningglory; Preemergence, Rate 125 g/ha): 0
Morningglory plant response rating (morningglory; [6]): 2
Morningglory plant response rating (morningglory; [7]): 3
Morningglory plant response rating (morningglory; [8]): 10
Plant response rating, Morningglory (morningglory; [9]): 10
Plant response rating, Blackgrass (blackgrass; [13]): 50
Plant response rating, Blackgrass (blackgrass; Rate 250 g/ha, 0 to 100 scale): 70
Plant response rating, Blackgrass (blackgrass; [15]): 100
Plant response rating, Green foxtail (green foxtail; [13]): 70
Plant response rating, Green foxtail (green foxtail; Rate 250 g/ha, 0 to 100 scale): 100
Plant response rating, Green foxtail (green foxtail; [15]): 100

CC1CC1n1c(=O)on(C(=O)N(c2ccc(F)cc2)C(C)C)c1=O (centres unmarked) [Compound 371]
Plant response rating, Redroot pigweed (pigweed; [3]): 0
Plant response rating, Redroot pigweed (pigweed; [4]): 2
Plant response rating, Redroot pigweed (pigweed; [5]): 4
Redroot pigweed plant response rating (0 to 10 scale) (pigweed; Preemergence, Rate 125 g/ha): 10
Redroot pigweed plant response rating (pigweed; [6]): 10
Redroot pigweed plant response rating (pigweed; [7]): 10
Redroot pigweed plant response rating (pigweed; [8]): 0
Plant response rating, Redroot pigweed (pigweed; [9]): 5
Plant response rating, Rape (rape; [3]): 0
Plant response rating, Rape (rape; [4]): 0
Plant response rating, Rape (rape; [5]): 0
Rape plant response rating (0 to 10 scale) (rape; Preemergence, Rate 125 g/ha): 4
Rape plant response rating (rape; [6]): 9
Rape plant response rating (rape; [7]): 10
Rape plant response rating (rape; [8]): 0
Plant response rating, Rape (rape; [9]): 0
Plant response rating, Wheat (winter) (winter wheat [1]; [10]): 70
Plant response rating, Wheat (winter) (winter wheat [1]; [11]): 65
Plant response rating, Wheat (winter) (winter wheat [1]; [12]): 80
Plant response rating, Giant foxtail (giant foxtail; [3]): 7
Plant response rating, Giant foxtail (giant foxtail; [4]): 8
Plant response rating, Giant foxtail (giant foxtail; [5]): 10
Giant foxtail plant response rating (0 to 10 scale) (giant foxtail; Preemergence, Rate 125 g/ha): 10
Giant foxtail plant response rating (giant foxtail; [6]): 10
Giant foxtail plant response rating (giant foxtail; [7]): 10
Giant foxtail plant response rating (giant foxtail; [8]): 5
Plant response rating, Giant foxtail (giant foxtail; [9]): 9
Plant response rating, Barley (winter) (winter barley; [13]): 40
Plant response rating, Barley (winter) (winter barley; [14]): 60
Plant response rating, Barley (winter) (winter barley; [15]): 70
Plant response rating, Wheat (winter) (winter wheat [2]; [13]): 60
Plant response rating, Wheat (winter) (winter wheat [2]; Rate 250 g/ha, 0 to 100 scale): 60
Plant response rating, Wheat (winter) (winter wheat [2]; [15]): 65
Plant response rating, I. Ryegrass (Italian ryegrass; [13]): 60
Plant response rating, I. Ryegrass (Italian ryegrass; Rate 250 g/ha, 0 to 100 scale): 70
Plant response rating, I. Ryegrass (Italian ryegrass; [15]): 90
Plant response rating, Wild oat (wild oat; [13]): 70
Plant response rating, Wild oat (wild oat; Rate 250 g/ha, 0 to 100 scale): 85
Plant response rating, Wild oat (wild oat; [15]): 90
Plant response rating, Morningglory (morningglory; [3]): 7
Plant response rating, Morningglory (morningglory; [4]): 7
Plant response rating, Morningglory (morningglory; [5]): 0
Morningglory plant response rating (0 to 10 scale) (morningglory; Preemergence, Rate 125 g/ha): 0
Morningglory plant response rating (morningglory; [6]): 0
Morningglory plant response rating (morningglory; [7]): 3
Morningglory plant response rating (morningglory; [8]): 7
Plant response rating, Morningglory (morningglory; [9]): 10
Plant response rating, Blackgrass (blackgrass; [13]): 85
Plant response rating, Blackgrass (blackgrass; Rate 250 g/ha, 0 to 100 scale): 100
Plant response rating, Blackgrass (blackgrass; [15]): 100
Plant response rating, Green foxtail (green foxtail; [13]): 35
Plant response rating, Green foxtail (green foxtail; Rate 250 g/ha, 0 to 100 scale): 60
Plant response rating, Green foxtail (green foxtail; [15]): 85

CCN(C(=O)n1oc(=O)n(C(C)C)c1=O)C1CCCCC1 [Compound 309]
Redroot pigweed plant response rating (pigweed; [16]): 0
Redroot pigweed plant response rating (0 to 10 scale) (pigweed; Preemergence, Rate 125 g/ha): 0
Redroot pigweed plant response rating (pigweed; [6]): 0
Redroot pigweed plant response rating (pigweed; [7]): 2
Redroot pigweed plant response rating (pigweed; [17]): 0
Redroot pigweed plant response rating (pigweed; [18]): 0
Plant response rating, Redroot pigweed (pigweed; [19]): 0
Rape plant response rating (rape; [16]): 0
Rape plant response rating (0 to 10 scale) (rape; Preemergence, Rate 125 g/ha): 0
Rape plant response rating (rape; [6]): 0
Rape plant response rating (rape; [7]): 0
Rape plant response rating (rape; [17]): 0
Rape plant response rating (rape; [18]): 0
Plant response rating, Rape (rape; [19]): 0
Plant response rating, Wheat (winter) (winter wheat [1]; [11]): 50
Plant response rating, Wheat (winter) (winter wheat [1]; Rate 1000 g/ha, 0 to 100 scale where 0 is no effect and 100 is complete control): 80
Plant response rating, Wheat (winter) (winter wheat [1]; [12]): 70
Giant foxtail plant response rating (giant foxtail; [16]): 5
Giant foxtail plant response rating (0 to 10 scale) (giant foxtail; Preemergence, Rate 125 g/ha): 9
Giant foxtail plant response rating (giant foxtail; [6]): 9
Giant foxtail plant response rating (giant foxtail; [7]): 9
Giant foxtail plant response rating (giant foxtail; [17]): 0
Giant foxtail plant response rating (giant foxtail; [18]): 0
Plant response rating, Giant foxtail (giant foxtail; [19]): 0
Plant response rating, Barley (winter) (winter barley; [14]): 50
Plant response rating, Barley (winter) (winter barley; [15]): 20
Plant response rating, Barley (winter) (winter barley; [20]): 70
Plant response rating, Wheat (winter) (winter wheat [2]; Rate 250 g/ha, 0 to 100 scale): 70
Plant response rating, Wheat (winter) (winter wheat [2]; [15]): 65
Plant response rating, Wheat (winter) (winter wheat [2]; [20]): 70
Plant response rating, I. Ryegrass (Italian ryegrass; Rate 250 g/ha, 0 to 100 scale): 50
Plant response rating, I. Ryegrass (Italian ryegrass; [15]): 60
Plant response rating, I. Ryegrass (Italian ryegrass; [20]): 70
Plant response rating, Wild oat (wild oat; Rate 250 g/ha, 0 to 100 scale): 50
Plant response rating, Wild oat (wild oat; [15]): 50
Plant response rating, Wild oat (wild oat; [20]): 70
Morningglory plant response rating (morningglory; [16]): 0
Morningglory plant response rating (0 to 10 scale) (morningglory; Preemergence, Rate 125 g/ha): 0
Morningglory plant response rating (morningglory; [6]): 0
Morningglory plant response rating (morningglory; [7]): 0
Morningglory plant response rating (morningglory; [17]): 1
Morningglory plant response rating (morningglory; [18]): 1
Plant response rating, Morningglory (morningglory; [19]): 2
Plant response rating, Blackgrass (blackgrass; Rate 250 g/ha, 0 to 100 scale): 60
Plant response rating, Blackgrass (blackgrass; [15]): 60
Plant response rating, Blackgrass (blackgrass; [20]): 75
Plant response rating, Green foxtail (green foxtail; Rate 250 g/ha, 0 to 100 scale): 65
Plant response rating, Green foxtail (green foxtail; [15]): 100
Plant response rating, Green foxtail (green foxtail; [20]): 100
